{"source": "patent US20220023258A1", "about": "“METHODS OF TREATING CONDITIONS RELATED TO THE S1P1 RECEPTOR” (Arena Pharmaceuticals, Inc., priority 2018, published 2022)", "format_in_all_cases": "in vivo, human", "key": {"healthy adult subjects": {"system": "healthy adult subjects", "test": "Multiple ascending dose study: heart rate, blood pressure, QTc", "conditions": "Day 1 to Day 28"}, "[1]": {"system": "patients with ulcerative colitis", "test": "Dose-ranging study in ulcerative colitis: Mayo scores, endoscopic improvement, remission", "conditions": "for improvement in 2-component Mayo Score relative to placebo / improvement in Total Mayo Score relative to placebo: Week 12; for proportion of patients achieving clinical remission, defined by the 3-component Mayo Score / improvement in 3-component Partial Mayo Score relative to placebo / patients who achieved endoscopic improvement: week 12", "text": "The treatment formulation was composed of immediate-release, hard gelatin capsules containing L-arginine salt of Compound 1. The placebo was composed of hard gelatin capsules containing microcrystalline cellulose. […] The primary objective of this proof-of-concept study was to determine the effect of treatment with the L-arginine salt of Compound 1 in changing 3-component Mayo Clinic score (score ranging from 0 to 9, including stool frequency, rectal bleeding and findings on endoscopy) at 12 weeks. […] ANCOVA model, adjusted for current oral corticosteroid use, prior exposure to TNF-alpha antagonists, and baseline value, was used to estimate changes in Mayo Clinic Score. Mantel-Haenszel method (estimated treatment difference by adjusting current oral corticosteroid use and prior exposure to TNF-alpha antagonists) used to estimate proportion difference for dichotomous parameters. Missing individual Mayo subscores impacting efficacy measures were imputed using multiple imputation methodology with observed case analysis for sensitivity. […] Hierarchical closed testing procedure for primary and secondary endpoints at 0.05 alpha level was used."}, "[2]": {"system": "patients with ulcerative colitis", "test": "Fecal calprotectin and C-reactive protein in ulcerative colitis study", "protocol": "The modified Mayo Clinic score (modified MCS) included endoscopic, rectal bleeding (RB), and stool frequency (SF) subscores. […] Endoscopic improvement was defined as a subscore ≤1. […] Comparisons between subgroups were assessed with a Wilcoxon rank-sum test (2-sided P values). Analysis of correlation between variables was conducted using the Spearman's rank coefficient (2-sided P values)."}, "[3]": {"conditions": "0.5 mg for 7 days then 3.0 mg for 14 days"}}, "note": "Where a name gives a salt, the structure may show the parent alone."}
{"compound": "O=C(O)C[C@H]1CCc2c1[nH]c1ccc(OCc3ccc(C4CCCC4)c(C(F)(F)F)c3)cc21", "note": "[L-arginine salt of Compound 1]", "values": [{"measurement": "Minimum post-dose Heart Rate, Change from Baseline Min, Max", "setting": "healthy adult subjects; [3]", "value": "−14.00 to −2.00", "unit": "BPM"}, {"measurement": "Minimum post-dose Heart Rate, On Treatment Mean (SD)", "setting": "healthy adult subjects; [3]", "value": "53.80 (4.73) BPM"}, {"measurement": "Minimum post-dose Systolic BP, Change from Baseline Mean", "setting": "healthy adult subjects; [3]", "value": "−7.80", "unit": "mmHg"}, {"measurement": "Minimum post-dose Systolic BP, Change from Baseline Median", "setting": "healthy adult subjects; [3]", "value": "−5.00", "unit": "mmHg"}, {"measurement": "Minimum post-dose Systolic BP, Change from Baseline Min, Max", "setting": "healthy adult subjects; [3]", "value": "−18.00 to 5.00", "unit": "mmHg"}, {"measurement": "Minimum post-dose Systolic BP, On Treatment Mean", "setting": "healthy adult subjects; [3]", "value": 93.20, "unit": "mmHg"}, {"measurement": "Minimum post-dose Diastolic BP, Change from Baseline Mean", "setting": "healthy adult subjects; 0.7 mg for 21 days", "value": "−6.10", "unit": "mmHg"}, {"measurement": "Minimum post-dose Diastolic BP, Change from Baseline Median", "setting": "healthy adult subjects; 0.7 mg for 21 days", "value": "−6.00", "unit": "mmHg"}, {"measurement": "Minimum post-dose Diastolic BP, Change from Baseline Min, Max", "setting": "healthy adult subjects; 0.7 mg for 21 days", "value": "−16.00 to 2.00", "unit": "mmHg"}, {"measurement": "Minimum post-dose Diastolic BP, On Treatment Mean (SD)", "setting": "healthy adult subjects; 0.7 mg for 21 days", "value": "56.00 (8.31) mmHg"}, {"measurement": "Minimum post-dose Heart Rate, Change from Baseline Mean", "setting": "healthy adult subjects; 0.7 mg for 21 days", "value": "−5.50", "unit": "BPM"}, {"measurement": "Minimum post-dose Heart Rate, Change from Baseline Median", "setting": "healthy adult subjects; 0.7 mg for 21 days", "value": "−5.00", "unit": "BPM"}, {"measurement": "Minimum post-dose Heart Rate, Change from Baseline Min, Max", "setting": "healthy adult subjects; 0.7 mg for 21 days", "value": "−12.00 to −1.00", "unit": "BPM"}, {"measurement": "Minimum post-dose Heart Rate, On Treatment Mean (SD)", "setting": "healthy adult subjects; 0.7 mg for 21 days", "value": "54.20 (4.05) BPM"}, {"measurement": "Minimum post-dose Systolic BP, Change from Baseline Mean", "setting": "healthy adult subjects; 0.7 mg for 21 days", "value": "−9.70", "unit": "mmHg"}, {"measurement": "Minimum post-dose Systolic BP, Change from Baseline Median", "setting": "healthy adult subjects; 0.7 mg for 21 days", "value": "−9.50", "unit": "mmHg"}, {"measurement": "Minimum post-dose Systolic BP, Change from Baseline Min, Max", "setting": "healthy adult subjects; 0.7 mg for 21 days", "value": "−16.00 to −1.00", "unit": "mmHg"}, {"measurement": "Minimum post-dose Systolic BP, On Treatment Mean", "setting": "healthy adult subjects; 0.7 mg for 21 days", "value": 96.10, "unit": "mmHg"}, {"measurement": "Minimum post-dose Diastolic BP, Change from Baseline Mean", "setting": "healthy adult subjects; 1.35 mg for 21 days", "value": "−5.20", "unit": "mmHg"}, {"measurement": "Minimum post-dose Diastolic BP, Change from Baseline Median", "setting": "healthy adult subjects; 1.35 mg for 21 days", "value": "−7.50", "unit": "mmHg"}, {"measurement": "Minimum post-dose Diastolic BP, Change from Baseline Min, Max", "setting": "healthy adult subjects; 1.35 mg for 21 days", "value": "−11.00 to 6.00", "unit": "mmHg"}, {"measurement": "Minimum post-dose Diastolic BP, On Treatment Mean (SD)", "setting": "healthy adult subjects; 1.35 mg for 21 days", "value": "53.70 (4.03) mmHg"}, {"measurement": "Minimum post-dose Heart Rate, Change from Baseline Mean", "setting": "healthy adult subjects; 1.35 mg for 21 days", "value": "−6.20", "unit": "BPM"}, {"measurement": "Minimum post-dose Heart Rate, Change from Baseline Median", "setting": "healthy adult subjects; 1.35 mg for 21 days", "value": "−5.00", "unit": "BPM"}, {"measurement": "Minimum post-dose Heart Rate, Change from Baseline Min, Max", "setting": "healthy adult subjects; 1.35 mg for 21 days", "value": "−18.00 to 3.00", "unit": "BPM"}, {"measurement": "Minimum post-dose Heart Rate, On Treatment Mean (SD)", "setting": "healthy adult subjects; 1.35 mg for 21 days", "value": "54.40 (4.09) BPM"}, {"measurement": "Minimum post-dose Systolic BP, Change from Baseline Mean", "setting": "healthy adult subjects; 1.35 mg for 21 days", "value": "−8.90", "unit": "mmHg"}, {"measurement": "Minimum post-dose Systolic BP, Change from Baseline Median", "setting": "healthy adult subjects; 1.35 mg for 21 days", "value": "−8.00", "unit": "mmHg"}, {"measurement": "Minimum post-dose Systolic BP, Change from Baseline Min, Max", "setting": "healthy adult subjects; 1.35 mg for 21 days", "value": "−22.00 to 3.00", "unit": "mmHg"}, {"measurement": "Minimum post-dose Systolic BP, On Treatment Mean", "setting": "healthy adult subjects; 1.35 mg for 21 days", "value": 100.10, "unit": "mmHg"}, {"measurement": "Minimum post-dose Diastolic BP, Change from Baseline Mean", "setting": "healthy adult subjects; 2.0 mg for 21 days", "value": "−11.20", "unit": "mmHg"}, {"measurement": "Minimum post-dose Diastolic BP, Change from Baseline Median", "setting": "healthy adult subjects; 2.0 mg for 21 days", "value": "−9.00", "unit": "mmHg"}, {"measurement": "Minimum post-dose Diastolic BP, Change from Baseline Min, Max", "setting": "healthy adult subjects; 2.0 mg for 21 days", "value": "−21.00 to −4.00", "unit": "mmHg"}, {"measurement": "Minimum post-dose Diastolic BP, On Treatment Mean (SD)", "setting": "healthy adult subjects; 2.0 mg for 21 days", "value": "45.30 (7.42) mmHg"}, {"measurement": "Minimum post-dose Heart Rate, Change from Baseline Mean", "setting": "healthy adult subjects; 2.0 mg for 21 days", "value": "−8.30", "unit": "BPM"}, {"measurement": "Minimum post-dose Heart Rate, Change from Baseline Median", "setting": "healthy adult subjects; 2.0 mg for 21 days", "value": "−7.50", "unit": "BPM"}, {"measurement": "Minimum post-dose Heart Rate, Change from Baseline Min, Max", "setting": "healthy adult subjects; 2.0 mg for 21 days", "value": "−16.00 to −3.00", "unit": "BPM"}, {"measurement": "Minimum post-dose Heart Rate, On Treatment Mean (SD)", "setting": "healthy adult subjects; 2.0 mg for 21 days", "value": "51.00 (4.78) BPM"}, {"measurement": "Minimum post-dose Systolic BP, Change from Baseline Mean", "setting": "healthy adult subjects; 2.0 mg for 21 days", "value": "−9.80", "unit": "mmHg"}, {"measurement": "Minimum post-dose Systolic BP, Change from Baseline Median", "setting": "healthy adult subjects; 2.0 mg for 21 days", "value": "−9.00", "unit": "mmHg"}, {"measurement": "Minimum post-dose Systolic BP, Change from Baseline Min, Max", "setting": "healthy adult subjects; 2.0 mg for 21 days", "value": "−18.00 to −4.00", "unit": "mmHg"}, {"measurement": "Minimum post-dose Systolic BP, On Treatment Mean", "setting": "healthy adult subjects; 2.0 mg for 21 days", "value": 90.80, "unit": "mmHg"}, {"measurement": "improvement in 2-component Mayo Score relative to placebo", "setting": "[1]; 1 mg q.d., p=0.086", "value": 0.39}, {"measurement": "improvement in Total Mayo Score relative to placebo", "setting": "[1]; 1 mg q.d., p=0.128", "value": 0.60}, {"measurement": "proportion of patients achieving clinical remission, defined by the 3-component Mayo Score", "setting": "[1]; 1 mg q.d., p=0.136", "value": 16.0, "unit": "%"}, {"measurement": "improvement in 3-component Partial Mayo Score relative to placebo", "setting": "[1]; 1 mg q.d., p=0.146", "value": 0.43}, {"measurement": "patients who achieved endoscopic improvement", "setting": "[1]; 1 mg q.d., p=0.306", "value": 22.5, "unit": "%"}, {"measurement": "Remission defined by the 4-component Total Mayo Score", "setting": "[1]; 1 mg q.d., p=0.077", "value": 15.4, "unit": "%"}, {"measurement": "improvement in Total Mayo Score relative to placebo", "setting": "[1]; 2 mg q.d., p=0.010", "value": 1.27}, {"measurement": "proportion of patients achieving clinical remission, defined by the 3-component Mayo Score", "setting": "[1]; 2 mg q.d., p<0.001 vs placebo 8.1%", "value": 33.0, "unit": "%"}, {"measurement": "patients who achieved endoscopic improvement", "setting": "[1]; 2 mg q.d., p=0.003 vs placebo 17.8%", "value": 41.8, "unit": "%"}, {"measurement": "improvement in 3-component Partial Mayo Score relative to placebo", "setting": "[1]; 2 mg q.d., p=0.009", "value": 0.99}, {"measurement": "improvement in 2-component Mayo Score relative to placebo", "setting": "[1]; dose not printed in sentence (high dose), p=0.002", "value": 0.84}, {"measurement": "Remission defined by the 4-component Total Mayo Score", "setting": "[1]; dose not printed in sentence (high dose), p=0.004 vs placebo 6.0%", "value": 24.5, "unit": "%"}, {"measurement": "decrease in FC versus placebo across the study", "setting": "[2]; 1 mg, did not reach statistical significance, P=0.08", "value": 0.71}, {"measurement": "decrease in CRP compared with placebo across the study", "setting": "[2]; 1 mg, mixed-model for repeat measures, P=0.02", "value": 0.72}, {"measurement": "median FC at week 12, patients who did not achieve remission", "setting": "[2]; 2 mg", "value": 1129, "unit": "µg/g"}, {"measurement": "median FC at week 12, patients who achieved remission", "setting": "[2]; 2 mg, P<0.001 vs no remission", "value": 62.0, "unit": "µg/g"}, {"measurement": "decrease in FC compared with placebo across the study", "setting": "[2]; 2 mg, mixed-model for repeat measures, P<0.001", "value": 0.42}, {"measurement": "decrease in CRP compared with placebo across the study", "setting": "[2]; 2 mg, mixed-model for repeat measures, P=0.01", "value": 0.70}, {"measurement": "time at which decreases in FC and CRP levels versus placebo were first observed", "setting": "[2]; 2 mg, sustained through week 12", "value": 4, "unit": "week"}]}
